Results: patent publication US20250177408A1, “INHIBITOR OF INTERACTION BETWEEN YAP/TAZ AND TEAD, PREPARATION THEREOF, PHARMACEUTICAL COMPOSITION THEREOF AND USE THEREOF” (ETERN BIOPHARMA (SHANGHAI) CO., LTD., priority 2022, published 2025)

Assays:
MSTO-211H cells = assay: Cell proliferation inhibition experiment (CellTiter-Glo); type: cell-based; details: Homo sapiens, 96 hours, read-out: Inhibitory activity of each compound on the proliferation of MSTO-211H cells (grades of IC50 values)
Experimental: In this example, the intracellular ATP was quantitatively determined by the CellTiter-Glo luminescence cell viability detection kit to detect the number of living cells in the culture.
Step 1: MSTO-211H (ATCC, CRL-2081TM) or NCI-H2052 (ATCC, CRL-5915TM) cells were inoculated in a 96-well plate at a density of 1500 cells per well with a volume of 100 μL per well, and the cells were incubated overnight in a 37° C., 5% carbon dioxide incubator. The culture medium used was RPMI1640 medium (GIBCO-A10491-01)+10% FBS (GIBCO-10099141C)+1% penicillin/streptomycin (Pen/Strep) (GIBCO-15070-063).
Step 2: The cells were treated with the compounds to be tested. The compounds to be tested were 3-fold diluted, and a total of 9 concentration gradients were set up; a certain volume of DMSO or the compounds to be tested was added to each well, respectively, and 2 replicates were set up for each concentration, and the final concentration of DMSO was controlled to be no higher than 0.5%. The cells were incubated for 96 hours in a 37° C., 5% carbon dioxide incubator.
Step 3: Cell viability was detected in the control group and treatment group using CellTiter-Glo Luminescent Cell Viability Assay kit (Promega, G7570). 50 μL of CellTiter-Glo was added to each well, mixed well, and incubated at room temperature for 10 minutes. The signal was read using En Vision® Multilabel Plate Reader (Perkin Elmer).
(§1) The inhibition percentage (%) was calculated using the following formula: […]
Using Graphpad Prism software, the IC50 values of the compounds inhibiting the CTG signal of cell proliferation activity was calculated.

[1] = target: YAP-TEAD protein interaction (His-TEAD1 (209-426) protein, Bio-YAP peptide (60-100)) (Homo sapiens, UniProt P28347); assay: YAP-TEAD protein interaction HTRF experiment; type: binding; details: His-TEAD1 (209-426) 10 nM, Bio-YAP peptide 50 nM, read-out: Activity of each compound in blocking YAP-TEAD protein interaction (grades of IC50 values)
Experimental: In this example, the YAP-TEAD protein interaction HTRF experiment was used to detect the activity of each compound in blocking the YAP-TEAD protein interaction.
The experiment was carried out according to the following operation steps:
Step 1: His-TEAD1 (209-426) protein was added to a 384-well detection white plate to a final concentration of 10 nM, and buffer was used as the background signal well. The compounds to be tested were subjected to 3-fold dilution and a total of 10 concentration gradients were set up, and each diluted solution was mixed well. A certain volume of the compound to be tested was added to each well separately, 2 replicates were set for each concentration, and the final concentration of DMSO was controlled at 1%. Incubation was carried out at room temperature for 20 minutes. The amino acid sequence of TAED1 (209-426) used in this step is shown in SEQ ID NO: 1:
After mixing evenly, the mixture was incubated at room temperature for 10 minutes.
Step 3: Anti-His-Eu cryptate gold and streptavidin-XL665 were diluted according to the instructions and mixed in equal proportions. A certain volume of the detection reagent was added to the well, and the mixture was incubated at room temperature for 1 hour.
Step 4: The signal was detected using an Envision (Perkin Elmer) microplate reader at an excitation wavelength of 320 nm and emission wavelengths of 665 nm and 620 nm.
Step 5: The signal was calculated based on the ratio of Em665/Em620*10000.
as §1
The half-maximal inhibitory concentration (IC50) values were calculated using GraphPad Prism software.

YAP-TEAD protein interaction (His-TEAD1 (209-426) protein, Bio-YAP peptide (60-100)), sequence (P28347 209-426): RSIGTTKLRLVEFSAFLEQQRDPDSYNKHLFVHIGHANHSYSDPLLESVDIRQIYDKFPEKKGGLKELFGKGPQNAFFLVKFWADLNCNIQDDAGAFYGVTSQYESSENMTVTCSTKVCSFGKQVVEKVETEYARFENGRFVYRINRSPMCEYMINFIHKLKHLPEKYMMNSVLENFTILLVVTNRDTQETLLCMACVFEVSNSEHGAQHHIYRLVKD

| IC50 [1] [µM] | Compound | IC50 (MSTO-211H cells) [µM] |
| --- | --- | --- |
| < 0.05 | [2H]C1([2H])CC[C@]([2H])([C@@]2(c3ccccc3)Cc3c(cc(F)c(Cl)c3-c3c(C(N)=O)cc4c(c3F)Oc3c(cnn(CCC(F)(F)F)c3=O)O4)O2)N1 (atropisomer, axis not shown) [Compound 155, (S)-8-((S)-5-Chloro-6-fluoro-2-phenyl-2-((S)-pyrrolidin-2-yl-2,5,5-d3)-2,3-dihydrobenzofuran-4-yl)-9-fluoro-1-oxo-2-(3,3,3-trifluoropropyl)-1,2-dihydroxybenzo[5,6][1,4] dioxo[2,3-d]pyridazine-7-carboxamide] | < 0.2 |
| < 0.05 | [2H]C1([2H])CC[C@]([2H])([C@@]2(c3ccccc3)Cc3c(cc(F)c(Cl)c3-c3c(C(N)=O)cc4c(c3F)Oc3c(cnn(C5CC(F)(F)C5)c3=O)O4)O2)N1 (atropisomer, axis not shown) [Compound 154, (S)-8-((S)-5-Chloro-6-fluoro-2-phenyl-2-((S)-pyrrolidin-2-yl-2,5,5-d3)-2,3-dihydrobenzofuran-4-yl)-2-(3,3-difluorocyclobutyl)-9-fluoro-1-oxo-1,2-dihydrobenzo[5,6][1,4]dioxo [2,3-d]pyridazine-7-carboxamide] | < 0.2 |
| < 0.05 | CNC(=O)c1cc2c(c(F)c1-c1c(Cl)c(F)cc3c1C[C@](c1ccccc1)([C@@H]1CCCN1)O3)Oc1c(cnn(CCC(F)(F)F)c1=O)O2 (atropisomer, axis not shown) [Compound 142, (R)-8-((S)-5-Chloro-6-fluoro-2-phenyl-2-((S)-pyrrolidin-2-yl)-2,3-dihydrobenzofuran-4-yl)-9-fluoro-N-methyl-1-oxo-2-(3,3,3-trifluoropropyl)-1,2-dihydrobenzo[5,6][1,4]dioxa[2,3-d]pyridazine-7-carboxamide] | < 0.2 |
| < 0.05 | CNC[C@@]1(c2ccccc2)Cc2c(cc(F)c(Cl)c2-c2c(C(N)=O)cn3cc(C)nc3c2F)O1 (atropisomer, axis not shown) [Compound I-16, (S)-7-((S)-5-Chloro-6-fluoro-2-((methylamino)methyl)-2-phenyl-2,3-dihydrobenzofuran-4-yl)-8-fluoro-2-methylimidazo[1,2-a]pyridine-6-carboxamide] | < 0.2 |
| < 0.05 | Cn1cc2c(n1)COc1c-2cc(C(N)=O)c(-c2c(Cl)c(F)cc3c2C[C@@](CN[C@H]2CC[C@H](O)CC2)(c2ccccc2)O3)c1F (atropisomer, axis not shown) [Compound 81] | < 0.2 |
| < 0.05 | CNC[C@@]1(c2ccccc2)Cc2c(cc(F)c(Cl)c2-c2c(C(N)=O)cc3c(c2F)OCCN3)O1 (atropisomer, axis not shown) [Compound I-17, (S)-7-((S)-5-Chloro-6-fluoro-2-((methylamino)methyl)-2-phenyl-2,3-dihydrobenzofuran-4-yl)-8-fluoro-3,4-dihydro-2H-benzo[b][1,4]oxazine-6-carboxamide] | < 0.2 |
| < 0.05 | NC(=O)c1cc2c(c(F)c1-c1c(Cl)c(F)cc3c1C[C@](c1ccccc1)([C@@H]1CCCN1)O3)Oc1nccnc1O2 (atropisomer, axis not shown) [Compound 10, (S)-8-((S)-5-Chloro-6-fluoro-2-phenyl-2-((S)-pyrrolidin-2-yl)-2,3-dihydrobenzofuran-4-yl)-9-fluorobenzo[5,6][1,4]dioxino[2,3-b]pyrazine-7-carboxamide] | < 0.2 |
| < 0.05 | NC(=O)c1cc2c(c(F)c1-c1c(Cl)c(F)cc3c1C[C@](c1ccccc1)([C@@H]1CCCN1)O3)OCc1nncn1-2 (atropisomer, axis not shown) [Compound 42, (S)-7-((S)-5-Chloro-6-fluoro-2-phenyl-2-((S)-pyrrolidin-2-yl)-2,3-dihydrobenzofuran-4-yl)-6-fluoro-4H-benzo[b][1,2,4]triazolo[4,3-d][1,4]oxazine-8-carboxamide] | 0.5 to 5 |
| < 0.05 | Cn1cc2c(n1)COc1c-2cc(C#N)c(-c2c(Cl)c(F)cc3c2C[C@](c2ccccc2)([C@@H]2CCCN2)O3)c1F (atropisomer, axis not shown) [Compound 2, (S)-7-((S)-5-Chloro-6-fluoro-2-phenyl-2-((S)-pyrrolidin-2-yl)-2,3-dihydrobenzofuran-4-yl)-6-fluoro-2-methyl-2,4-dihydrochromeno[3,4-c]pyrazole-8-carbonitrile] | 0.2 to 0.5 |
| < 0.05 | NC(=O)c1cc2c(c(F)c1-c1c(Cl)c(F)cc3c1C[C@](c1ccccc1)([C@@H]1CCCN1)O3)Oc1nc(CO)cnc1O2 (atropisomer, axis not shown) [Compound 101, (S)-8-((S)-5-Chloro-6-fluoro-2-phenyl-2-((S)-pyrrolidin-2-yl)-2,3-dihydrobenzofuran-4-yl)-9-fluoro-2-(hydroxymethyl)benzo[5,6] [1,4]dioxo [2,3-b]pyrazine-7-carboxamide] | < 0.2 |
| < 0.05 | Cn1ncc2c(c1=O)Oc1c(cc(C(N)=O)c(-c3c(Cl)c(F)cc4c3C[C@](c3ccccc3)([C@@H]3CCCN3)O4)c1F)O2 (atropisomer, axis not shown) [Compound 105, (S)-8-((S)-5-Chloro-6-fluoro-2-phenyl-2-((S)-pyrrolidin-2-yl)-2,3-dihydrobenzofuran-4-yl)-9-fluoro-2-methyl-1-oxo-1,2-dihydrobenzo[5,6][1,4]dioxo[2,3-d]pyridazine-7-carboxamide] | < 0.2 |
| < 0.05 | NC(=O)c1cc2c(c(F)c1-c1c(Cl)c(F)cc3c1C[C@](c1ccccc1)([C@@H]1CCCN1)O3)OCc1nccnc1-2 (atropisomer, axis not shown) [Compound 6, (S)-8-((S)-5-Chloro-6-fluoro-2-phenyl-2-((S)-pyrrolidin-2-yl)-2,3-dihydrobenzofuran-4-yl)-7-fluoro-5H-chromeno[3,4-b]pyrazine-9-carboxamide] | < 0.2 |
| < 0.05 | NC(=O)c1cc2c(c(F)c1-c1c(Cl)c(F)cc3c1C[C@](c1ccccc1)([C@@H]1CCCN1)O3)Oc1c(cnn(CCF)c1=O)O2 (atropisomer, axis not shown) [Compound 118, (S)-8-((S)-5-Chloro-6-fluoro-2-phenyl-2-((S)-pyrrolidin-2-yl)-2,3-dihydrobenzofuran-4-yl)-9-fluoro-2-(2-fluoroethyl)-1-oxo-1,2-dihydrobenzo[5,6][1,4]dioxo[2,3-d]pyridazine-7-carboxamide] | < 0.2 |
| < 0.05 | COCCn1ncc2c(c1=O)Oc1c(cc(C(N)=O)c(-c3c(Cl)c(F)cc4c3C[C@](c3ccccc3)([C@@H]3CCCN3)O4)c1F)O2 (atropisomer, axis not shown) [Compound 149, (R)-8-((S)-5-Chloro-6-fluoro-2-phenyl-2-((S)-pyrrolidin-2-yl)-2,3-dihydrobenzofuran-4-yl)-9-fluoro-2-(2-methoxyethyl)-1-oxo-1,2-dihydrobenzo[5,6][1,4]dioxa[2,3-d]pyridazine-7-carboxamide] | < 0.2 |
| < 0.05 | NC(=O)c1cc2c(c(F)c1-c1c(Cl)c(F)cc3c1C[C@](c1ccccc1)([C@@H]1CCCN1)O3)Oc1c(ncn(C3CC3)c1=O)O2 (atropisomer, axis not shown) [Compound 139, (S)-7-((S)-5-Chloro-6-fluoro-2-phenyl-2-((S)-pyrrolidin-2-yl)-2,3-dihydrobenzofuran-4-yl)-3-cyclopropyl-6-fluoro-4-oxo-3,4-dihydrobenzo [5,6][1,4]dioxo [2,3-d]pyrimidine-8-carboxamide] | < 0.2 |
